{"source": "patent US20040029965A1", "about": "“Formulations for reducing or eliminating toxicity of enviromental hormones containing ursodeoxycholic acid” (priority 2000, published 2004)", "format_in_all_cases": "in vivo", "key": {"C57B1/6J mice [1]": {"system": "C57B1/6J mice", "experiment": "Effect of UDCA on death (death rate, death time) of mice by a single subcutaneous injection of TCDD", "method": "(§1) Male C57B1/6J mice of 5 weeks old having the average weight of 18-22 g which had been bred in CRJ (Charles River in Japan) were purchased and used in this example as experimental animals. Those mice were acclimated under the constant breeding condition, i.e. the temperature of 24±1° C., the humidity of 60±10% and the light and darkness cycle of 12 hours, for one week and thereafter, utilized in the experiment.\nThe Experimental animals were supplied with Purina powdered feed (purchased from Hae Eun Trade) and supplied with water ad libitum. All the animals were weighed twice a week during experimentation.\n(§2) 2,3,7,8-tetrachlorodibenzo-p-dioxin (TCDD) dissolved in toluene (purity of 95% or more as a result of gas chromatography analysis), manufactured by Chem. Services Inc. in USA, was volatilized with nitrogen to obtain powder. The obtained powder was dissolved in a mixed solvent containing acetone and corn oil with a volume ratio of 1:6. The resulting solution each containing 110, 27.5 and 6.9 μg/kg of TCDD was subcutaneously injected to mice at a volume of 5 ml per body weight. […] The mice were supplied with the feed from 10 days before (pre-administration) to 60 days after administration of TCDD (post-administration).\n(§3) The results are expressed as Mean±Standard Deviation values. For statistical analysis of the body weight, feed and water uptake, biochemical findings, hematological findings and the weight of organ in an acute toxicity test, verification was performed by one way analysis of variance (ANOVA) in case of equal distribution. In case significance was recognized in ANOVA, the Student's t-test was performed in the levels of p<0.05 and p<0.01."}, "C57B1/6J mice [2]": {"system": "C57B1/6J mice", "experiment": "Johnsen's score of the testis tissue (level of spermatogenesis)", "method": "as §2\n(§4) Upon completion of the experiment for 60 days, the experimental animals were fasted for 24 hours and anesthetized with ether. Then, they were abdominally incised and blood was gathered from abdominal vena cava. They were sacrificed by the release of blood. Liver, kidneys, testes and epididymides were extracted and all the extracted organs were weighed. Only the testes were separately kept and observed under optical and electron microscopes. For biochemical finding test, serum was separated from blood with a centrifuge and the separated serum was analyzed with an automated blood biochemical analyzer, Dimension (Dupont, USA). Blood was put to another blood gathering bottle and then, analyzed with an automated blood cell analyzer, Celldyn (Abbott, USA).\nThe extracted testes were fixed in 10% neutralized formalin buffer for 24 hours and washed with the flowing water. It was subsequently dehydrated with ethanol and cleared with xylene and then, embedded with paraffin. It was sectioned with microtome (microm is HM 440E) to a thickness of 2-3 μm and then, double stained with hematoxylin and eosin to observe under an optical microscope.\nFor evaluation of the level of spermatogenesis, Johnsen's score was determined from 10 to 1 based on the presence or absence of principal cells arranged according to maturation of spermatogenesis. The basis of Johnsen's score in testes was the following:\n10: Perfect spermatogenesis having many sperms, organization of embryonic epithelial cells with a constant thickness, and opened lumen\n9: Despite many sperms, significant separation of embryonic epithelial cells from the basement membrane and disruption thereof, or loss of lumen\n8: Presence of 5 to less than 10 sperms in the section\n7: Many sperm cells without sperms\n6: 5 to less than 10 sperm cells without sperms\n5: Several or many spermatocytes without sperms and sperm cells\n4: Less than 5 spermatocytes without sperms and sperm cells\n3: Presence of only spermatogonia as reproductive cells\n2: Presence of only Sertoli cells without any reproductive cells\n1: No cells in the section of seminiferous tubules"}, "C57B1/6J mice [3]": {"system": "C57B1/6J mice", "experiment": "Hematological changes in mice by a single subcutaneous injection of TCDD", "set-up": "NEU / LYM / PLT: unit not given here", "method": "as §1, §2, §4, §3\nFor hematological findings, white blood cell (WBC), neutrophil (NEU), lymphocyte (LYM), monocyte (MONO), eosinophil (EOS), basophil (BASO) and red blood cell (RBC) counts, and hemoglobin concentration (HGB), hematocrit (HCT), mean cell volume (MCV), mean corpuscular hemoglobin (MCH), mean corpuscular hemoglobin concentration (MCHC), red blood cell distribution width (RDW) and platelet count (PLT) were measured and the results are as follows."}, "[4]": {"conditions": "TCDD 6.9 μg/kg + UDCA 0.125 wt %"}, "[5]": {"conditions": "TCDD 6.9 μg/kg + UDCA 0.25 wt %"}, "[6]": {"conditions": "TCDD 110.0 μg/kg + UDCA 0.125 wt %"}, "[7]": {"conditions": "TCDD 110.0 μg/kg + UDCA 0.25 wt %"}, "[8]": {"conditions": "TCDD 110.0 μg/kg + UDCA 0.5 wt %"}}}
{"smiles": "C[C@H](CCC(=O)O)[C@H]1CC[C@H]2[C@@H]3[C@@H](O)C[C@@H]4C[C@H](O)CC[C@]4(C)[C@H]3CC[C@]12C", "note": "[UDCA, 3α, 7β-dihydroxy-5β-cholanoic acid]", "values": [{"measurement": "Death rate", "setting": "C57B1/6J mice [1]; [4]", "value": 0, "unit": "%"}, {"measurement": "No. of dead mice/No. of administered mice", "setting": "C57B1/6J mice [1]; [4]", "value": "0/10"}, {"measurement": "Death rate", "setting": "C57B1/6J mice [1]; [5]", "value": 0, "unit": "%"}, {"measurement": "No. of dead mice/No. of administered mice", "setting": "C57B1/6J mice [1]; [5]", "value": "0/10"}, {"measurement": "Death rate", "setting": "C57B1/6J mice [1]; TCDD 6.9 μg/kg + UDCA 0.5 wt %", "value": 0, "unit": "%"}, {"measurement": "No. of dead mice/No. of administered mice", "setting": "C57B1/6J mice [1]; TCDD 6.9 μg/kg + UDCA 0.5 wt %", "value": "0/10"}, {"measurement": "No. of dead mice/No. of administered mice", "setting": "C57B1/6J mice [1]; TCDD 27.5 μg/kg + UDCA 0.125 wt %", "value": "0/10"}, {"measurement": "No. of dead mice/No. of administered mice", "setting": "C57B1/6J mice [1]; TCDD 27.5 μg/kg + UDCA 0.25 wt %", "value": "0/10"}, {"measurement": "No. of dead mice/No. of administered mice", "setting": "C57B1/6J mice [1]; TCDD 27.5 μg/kg + UDCA 0.5 wt %", "value": "0/10"}, {"measurement": "Death time (Mean ± SD)", "setting": "C57B1/6J mice [1]; [6]", "value": "33 ± 4", "unit": "days"}, {"measurement": "No. of dead mice/No. of administered mice", "setting": "C57B1/6J mice [1]; [6]", "value": "10/10"}, {"measurement": "Death rate", "setting": "C57B1/6J mice [1]; [7]", "value": 90, "unit": "%"}, {"measurement": "Death time (Mean ± SD)", "setting": "C57B1/6J mice [1]; [7]", "value": "34 ± 5", "unit": "days"}, {"measurement": "No. of dead mice/No. of administered mice", "setting": "C57B1/6J mice [1]; [7]", "value": "9/10"}, {"measurement": "Death rate", "setting": "C57B1/6J mice [1]; [8]", "value": 40, "unit": "%"}, {"measurement": "Death time (Mean ± SD)", "setting": "C57B1/6J mice [1]; [8]", "value": "51 ± 8", "unit": "days"}, {"measurement": "No. of dead mice/No. of administered mice", "setting": "C57B1/6J mice [1]; [8]", "value": "4/10"}, {"measurement": "Johnsen's score of the testis tissue", "setting": "C57B1/6J mice [2]; TCDD 6.9 μg/kg + UDCA 0.125 wt % in feed", "value": "8.7 ± 0.09"}, {"measurement": "Johnsen's score of the testis tissue", "setting": "C57B1/6J mice [2]; TCDD 6.9 μg/kg + UDCA 0.250 wt % in feed", "value": "8.84 ± 0.10"}, {"measurement": "Johnsen's score of the testis tissue", "setting": "C57B1/6J mice [2]; TCDD 6.9 μg/kg + UDCA 0.500 wt % in feed", "value": "9.10 ± 0.08"}, {"measurement": "Johnsen's score of the testis tissue", "setting": "C57B1/6J mice [2]; TCDD 27.5 μg/kg + UDCA 0.125 wt % in feed", "value": "8.40 ± 0.10"}, {"measurement": "Johnsen's score of the testis tissue", "setting": "C57B1/6J mice [2]; TCDD 27.5 μg/kg + UDCA 0.250 wt % in feed", "value": "8.42 ± 0.08"}, {"measurement": "Johnsen's score of the testis tissue", "setting": "C57B1/6J mice [2]; TCDD 27.5 μg/kg + UDCA 0.500 wt % in feed", "value": "8.81 ± 0.07"}, {"measurement": "BASO", "setting": "C57B1/6J mice [3]; [4]", "value": "0.12 ± 0.07 10^3"}, {"measurement": "EOS", "setting": "C57B1/6J mice [3]; [4]", "value": "0.004 ± 0.005 10^3"}, {"measurement": "HCT", "setting": "C57B1/6J mice [3]; [4]", "value": "44.61 ± 1.14", "unit": "%"}, {"measurement": "HGB", "setting": "C57B1/6J mice [3]; [4]", "value": "14.35 ± 0.37", "unit": "g/dL"}, {"measurement": "LYM", "setting": "C57B1/6J mice [3]; [4]", "value": "5.06 ± 1.70 10^3"}, {"measurement": "MCH", "setting": "C57B1/6J mice [3]; [4]", "value": "14.87 ± 0.22", "unit": "pg"}, {"measurement": "MCHC", "setting": "C57B1/6J mice [3]; [4]", "value": "32.18 ± 0.43", "unit": "g/dL"}, {"measurement": "MCV", "setting": "C57B1/6J mice [3]; [4]", "value": "46.18 ± 0.55", "unit": "fL"}, {"measurement": "MONO", "setting": "C57B1/6J mice [3]; [4]", "value": "0.05 ± 0.06 10^3"}, {"measurement": "NEU", "setting": "C57B1/6J mice [3]; [4]", "value": "0.32 ± 0.13 10^3"}, {"measurement": "PLT", "setting": "C57B1/6J mice [3]; [4]", "value": "1117.7 ± 88.65 10^3"}, {"measurement": "RBC", "setting": "C57B1/6J mice [3]; [4]", "value": "9.66 ± 0.24 10^6"}, {"measurement": "RDW", "setting": "C57B1/6J mice [3]; [4]", "value": "20.17 ± 1.07", "unit": "%"}, {"measurement": "WBC", "setting": "C57B1/6J mice [3]; [4]", "value": "5.55 ± 1.91 10^3"}, {"measurement": "BASO", "setting": "C57B1/6J mice [3]; [5]", "value": "0.09 ± 0.04 10^3"}, {"measurement": "EOS", "setting": "C57B1/6J mice [3]; [5]", "value": "0.003 ± 0.002 10^3"}, {"measurement": "HCT", "setting": "C57B1/6J mice [3]; [5]", "value": "44.77 ± 1.57", "unit": "%"}, {"measurement": "HGB", "setting": "C57B1/6J mice [3]; [5]", "value": "14.16 ± 0.44", "unit": "g/dL"}, {"measurement": "LYM", "setting": "C57B1/6J mice [3]; [5]", "value": "5.17 ± 1.49 10^3"}, {"measurement": "MCH", "setting": "C57B1/6J mice [3]; [5]", "value": "15.04 ± 0.25", "unit": "pg"}, {"measurement": "MCHC", "setting": "C57B1/6J mice [3]; [5]", "value": "31.63 ± 0.58", "unit": "g/dL"}, {"measurement": "MCV", "setting": "C57B1/6J mice [3]; [5]", "value": "47.56 ± 0.81", "unit": "fL"}, {"measurement": "MONO", "setting": "C57B1/6J mice [3]; [5]", "value": "0.04 ± 0.02 10^3"}, {"measurement": "NEU", "setting": "C57B1/6J mice [3]; [5]", "value": "0.28 ± 0.07 10^3"}, {"measurement": "PLT", "setting": "C57B1/6J mice [3]; [5]", "value": "1141.22 ± 67.79 10^3"}, {"measurement": "RBC", "setting": "C57B1/6J mice [3]; [5]", "value": "9.42 ± 0.37 10^6"}, {"measurement": "RDW", "setting": "C57B1/6J mice [3]; [5]", "value": "19.73 ± 0.91", "unit": "%"}, {"measurement": "WBC", "setting": "C57B1/6J mice [3]; [5]", "value": "5.68 ± 1.50 10^3"}, {"measurement": "BASO", "setting": "C57B1/6J mice [3]; TCDD 6.9 μg/kg + UDCA 0.5 wt %", "value": "0.10 ± 0.06 10^3"}, {"measurement": "EOS", "setting": "C57B1/6J mice [3]; TCDD 6.9 μg/kg + UDCA 0.5 wt %", "value": "0.002 ± 0.002 10^3"}]}
